From US20230085307A1, “PYRIDAZINONE COMPOUND AND HERBICIDE” (NISSAN CHEMICAL CORPORATION, priority 2019, published 2023) come the findings set out here.

Assay [1] has as its system oval-leafed pondweed. The experiment in a line: Test Example 1: herbicidal activity, application before weed generation under submerged conditions (Table 16, symbol C). The class given is in vivo, oval-leafed pondweed (Monochoria vaginalis). As to conditions: 320 g/ha applied herbicide. The method, boiled down:
(§1)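 Submerged Wagner pots (alluvial soil, 4 cm water) sown with weed seeds and planted with 2.5-leaf rice seedlings; emulsifiable concentrate diluted in water applied to water surface on sowing day. Held in greenhouse at 25-30 °C; injury scored 0-5 by herbicidal rate after three weeks.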

The next assay relates to southern crabgrass. The assay can be described thus: Test Example 5: herbicidal effect by foliage application, plastic box (Table 20, symbol F). The class given is in vivo, southern crabgrass (Digitaria ciliaris). As to conditions: foliage application, 320 g/ha, evaluated three weeks after application. The gist of the method: (§2)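 Post-emergence foliar test in sterilized diluvial soil. Compound applied as water-diluted emulsion at a predetermined rate to 14-day-old plants; evaluation at three weeks.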

The next assay has as its system Japanese bulrush. The experiment in a line: Test Example 1: herbicidal activity, application before weed generation under submerged conditions (Table 16, symbol B). The class given is in vivo, Japanese bulrush (Schoenoplectus juncoides). As to conditions: 320 g/ha applied herbicide. The method, boiled down:
as §1

For another assay, the system named is persian speedwell. The experiment in a line: Test Example 4: herbicidal effect by soil treatment (Table 19, symbol R). The class given is in vivo, Persian speedwell (Veronica persica). As to conditions: amount of applied herbicide 320 g/ha. The method, boiled down:
(§3)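 Emulsion of test compound, water-diluted to predetermined amount, sprayed on soil after sowing (seed depth ~1.5 cm, sterilized diluvial soil). Greenhouse, 25–30° C. Effect graded at three weeks post-spray.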

The next assay concerns lambsquarters. The experiment in a line: Test Example 5: herbicidal effect by foliage application, plastic box (Table 20, symbol O). The class given is in vivo, lambsquarters (Chenopodium album). As to conditions: foliage application, 320 g/ha, evaluated three weeks after application. The gist of the method: as §2
A further assay concerns blackgrass. The experiment in a line: Test Example 4: herbicidal effect by soil treatment (Table 19, symbol J). The following applies: amount of applied herbicide 320 g/ha. The class given is in vivo, blackgrass (Alopecurus myosuroides). The gist of the method:
as §3

The test system of another assay is barnyard grass. The assay can be described thus: Test Example 5: herbicidal effect by foliage application, plastic box (Table 20, symbol H). The class given is in vivo, barnyard grass (Echinochloa crus-galli). The following applies: foliage application, 320 g/ha, evaluated three weeks after application. The method, boiled down: as §2
Assay [2] concerns oval-leafed pondweed. The assay can be described thus: Test Example 2: herbicidal activity, application during weed generation under submerged conditions (Table 17, symbol C). The class given is in vivo, oval-leafed pondweed (Monochoria vaginalis). As to conditions: AAH 320 g/ha; application during weed generation, submerged conditions. The method, boiled down: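 Herbicide emulsion, diluted with water to the chosen amount, is applied onto 4 cm floodwater over alluvial soil where the weeds were co-sown and raised at 25–30° C. Application timing: 1–2 leaves. Assessment: three weeks afterwards.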

For the next assay, the system named is windgrass. The experiment in a line: Test Example 4: herbicidal effect by soil treatment (Table 19, symbol L). The following applies: amount of applied herbicide 320 g/ha. The class given is in vivo, windgrass (Apera spica-venti). The gist of the method:
as §3

The subject of another assay is late watergrass. The assay can be described thus: Test Example 1: herbicidal activity, application before weed generation under submerged conditions (Table 16, symbol A). The class given is in vivo, late watergrass (Echinochloa oryzicola). As to conditions: 320 g/ha applied herbicide. The method, boiled down:
as §1

Another assay has as its system Chinese sprangletop. The experiment in a line: Test Example 3: herbicidal effect by foliage application, Wagner pot (Table 18, symbol D). The class given is in vivo, chinese sprangletop (Leptochloa chinensis). As to conditions: amount of applied herbicide 320 g/ha. The method, boiled down:
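Plants were sown in alluvial soil held under 0.1–0.5 cm standing water and grown 14 days in a greenhouse at 25–30 °C. An emulsifiable formulation, water-diluted to the set dose, was then sprayed onto the foliage, and effects were scored three weeks later using previously defined criteria.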

With `CCCC(=O)Oc1c(C)nn(C)c(=O)c1-c1c(-c2cccc(F)c2)sc2ccc(F)cc12` [2-202], the “Herbicidal effect on C: oval-leafed pondweed (grade 0-5)” value (“Herbicidal effect on C” for short) in the assay with oval-leafed pondweed [1] was 0 (Herbicidal rate of 5% or less (almost no effect)). Besides, the “herbicidal effect on F: southern crabgrass (criteria 0-5)” value (from here on “herbicidal effect on F”) in the assay with southern crabgrass is 3 (Herbicidal rate of 40% or more and less than 70%). Moreover, the “Herbicidal effect on B: Japanese bulrush (grade 0-5)” value (“Herbicidal effect on B” for short) with Japanese bulrush is recorded as 0 (Herbicidal rate of 5% or less (almost no effect)). In the assay with persian speedwell, the “R: persian speedwell, herbicidal effect rating” value was 4 (Herbicidal rate of 70% or more and less than 90%). The “herbicidal effect on O: lambsquarters (criteria 0-5)” value (from here on “herbicidal effect on O”) in the assay with lambsquarters was 4 (Herbicidal rate of 70% or more and less than 90%). Further, the “J: blackgrass, herbicidal effect rating” value in the assay on blackgrass is given as 0 (Herbicidal rate of 5% or less (almost no effect)). In addition, the “herbicidal effect on H: barnyard grass (criteria 0-5)” value (from here on “herbicidal effect on H”) in the assay with barnyard grass was 4 (Herbicidal rate of 70% or more and less than 90%). Besides, in the assay with oval-leafed pondweed [2], the “herbicidal effect rating, C: oval-leafed pondweed” value (“herbicidal effect rating, C” for short) was 4 (Herbicidal rate of 70% or more and less than 90%). Further, in the assay on windgrass, the “L: windgrass, herbicidal effect rating” value was 0 (Herbicidal rate of 5% or less (almost no effect)). Moreover, in the assay on late watergrass, the “Herbicidal effect on A: late watergrass (grade 0-5)” value is 3 (Herbicidal rate of 40% or more and less than 70%). In the assay on Chinese sprangletop, the “herbicidal effect on D: Chinese sprangletop” value (shortened to “herbicidal effect on D”) is recorded as 5 (Herbicidal rate of 90% or more (almost completely withered)).
For the compound `Cc1nn(C)c(=O)c(-c2c(-c3cccc(OC(C)C)c3)sc3ccc(F)cc23)c1O` [2-215], the “Herbicidal effect on C” value with oval-leafed pondweed [1] was 0 (Herbicidal rate of 5% or less (almost no effect)). Also, the “herbicidal effect on F” value in the assay with southern crabgrass is 5 (Herbicidal rate of 90% or more (almost completely withered)). Also, the “Herbicidal effect on B” value with Japanese bulrush was 0 (Herbicidal rate of 5% or less (almost no effect)). Moreover, in the assay with persian speedwell, the “R: persian speedwell, herbicidal effect rating” value was 4 (Herbicidal rate of 70% or more and less than 90%). For the same compound, the “herbicidal effect on O” value in the assay with lambsquarters was 3 (Herbicidal rate of 40% or more and less than 70%). Also, in the assay with blackgrass, the “J: blackgrass, herbicidal effect rating” value was 1 (Herbicidal rate of 5% or more and less than 20%). Also, in the assay on barnyard grass, the “herbicidal effect on H” value was 5 (Herbicidal rate of 90% or more (almost completely withered)). Besides, the “herbicidal effect rating, C” value in the assay with oval-leafed pondweed [2] is reported as 0 (Herbicidal rate of 5% or less (almost no effect)). Besides, in the assay on windgrass, the “L: windgrass, herbicidal effect rating” value is recorded as 0 (Herbicidal rate of 5% or less (almost no effect)). The “Herbicidal effect on A: late watergrass (grade 0-5)” value in the assay with late watergrass is 3 (Herbicidal rate of 40% or more and less than 70%). Also, the “herbicidal effect on D” value in the assay with Chinese sprangletop is 5 (Herbicidal rate of 90% or more (almost completely withered)).
Turning to `Cc1nn(C)c(=O)c(-c2c(-c3ccc(OC4CC4)cc3)sc3ccc(F)cc23)c1O` [2-217], the “Herbicidal effect on C” value in the assay with oval-leafed pondweed [1] is 4 (Herbicidal rate of 70% or more and less than 90%). In the assay on southern crabgrass, the “herbicidal effect on F” value is 3 (Herbicidal rate of 40% or more and less than 70%). Also, the “Herbicidal effect on B” value in the assay on Japanese bulrush is given as 5 (Herbicidal rate of 90% or more (almost completely withered)). Moreover, in the assay on persian speedwell, the “R: persian speedwell, herbicidal effect rating” value is 4 (Herbicidal rate of 70% or more and less than 90%). In the assay on lambsquarters, the “herbicidal effect on O” value is 4 (Herbicidal rate of 70% or more and less than 90%). The “J: blackgrass, herbicidal effect rating” value in the assay with blackgrass is on record as 0 (Herbicidal rate of 5% or less (almost no effect)). The “herbicidal effect on H” value in the assay with barnyard grass was 5 (Herbicidal rate of 90% or more (almost completely withered)). Further, the “herbicidal effect rating, C” value in the assay on oval-leafed pondweed [2] was 0 (Herbicidal rate of 5% or less (almost no effect)). In addition, the “L: windgrass, herbicidal effect rating” value in the assay on windgrass is given as 0 (Herbicidal rate of 5% or less (almost no effect)). Also, the “Herbicidal effect on A: late watergrass (grade 0-5)” value in the assay with late watergrass is reported as 5 (Herbicidal rate of 90% or more (almost completely withered)). In the assay on Chinese sprangletop, the “herbicidal effect on D” value is given as 5 (Herbicidal rate of 90% or more (almost completely withered)).
Turning to `CCCC(=O)Oc1c(C)nn(C)c(=O)c1-c1c(-c2ccc(OC3CC3)cc2)sc2ccc(F)cc12` [2-218], the “Herbicidal effect on C” value in the assay with oval-leafed pondweed [1] is listed as 5 (Herbicidal rate of 90% or more (almost completely withered)). Further, the “herbicidal effect on F” value in the assay on southern crabgrass is 0 (Herbicidal rate of 5% or less (almost no effect)). Moreover, in the assay on Japanese bulrush, the “Herbicidal effect on B” value was 5 (Herbicidal rate of 90% or more (almost completely withered)). The “R: persian speedwell, herbicidal effect rating” value with persian speedwell is 4 (Herbicidal rate of 70% or more and less than 90%). The “herbicidal effect on O” value in the assay on lambsquarters is given as 5 (Herbicidal rate of 90% or more (almost completely withered)). Further, in the assay with blackgrass, the “J: blackgrass, herbicidal effect rating” value is recorded as 0 (Herbicidal rate of 5% or less (almost no effect)). The “herbicidal effect on H” value with barnyard grass was 4 (Herbicidal rate of 70% or more and less than 90%). Further, the “herbicidal effect rating, C” value in the assay on oval-leafed pondweed [2] was 3 (Herbicidal rate of 40% or more and less than 70%). Besides, the “L: windgrass, herbicidal effect rating” value with windgrass is 0 (Herbicidal rate of 5% or less (almost no effect)). Also, in the assay with late watergrass, the “Herbicidal effect on A: late watergrass (grade 0-5)” value was 5 (Herbicidal rate of 90% or more (almost completely withered)). In the assay on Chinese sprangletop, the “herbicidal effect on D” value is 3 (Herbicidal rate of 40% or more and less than 70%).
With `CCCC(=O)Oc1c(C)nn(C)c(=O)c1-c1c(-c2cccc(OCC(C)C)c2)sc2ccc(F)cc12` [2-222], in the assay with oval-leafed pondweed [1], the “Herbicidal effect on C” value was 4 (Herbicidal rate of 70% or more and less than 90%). Also, the “herbicidal effect on F” value with southern crabgrass was 5 (Herbicidal rate of 90% or more (almost completely withered)). Moreover, the “Herbicidal effect on B” value in the assay on Japanese bulrush was 4 (Herbicidal rate of 70% or more and less than 90%). For the same compound, the “herbicidal effect on R: persian speedwell” value in the assay on persian speedwell is 5 (Herbicidal rate of 90% or more (almost completely withered)). In addition, in the assay with lambsquarters, the “herbicidal effect on O” value is on record as 5 (Herbicidal rate of 90% or more (almost completely withered)). In addition, the “herbicidal effect on J: blackgrass” value with blackgrass was 4 (Herbicidal rate of 70% or more and less than 90%). The “herbicidal effect on H” value in the assay on barnyard grass was 5 (Herbicidal rate of 90% or more (almost completely withered)). Also, the “herbicidal effect rating, C” value in the assay on oval-leafed pondweed [2] was 3 (Herbicidal rate of 40% or more and less than 70%). For the same compound, in the assay on windgrass, the “herbicidal effect on L: windgrass” value is 4 (Herbicidal rate of 70% or more and less than 90%). In addition, the “Herbicidal effect on A: late watergrass (grade 0-5)” value in the assay on late watergrass was 5 (Herbicidal rate of 90% or more (almost completely withered)). The “herbicidal effect on D” value in the assay with Chinese sprangletop is given as 5 (Herbicidal rate of 90% or more (almost completely withered)).
Regarding `CCCCCOc1cccc(-c2sc3ccc(F)cc3c2-c2c(O)c(C)nn(C)c2=O)c1` [2-225], in the assay with oval-leafed pondweed [1], the “Herbicidal effect on C” value was 3 (Herbicidal rate of 40% or more and less than 70%). For the same compound, the “herbicidal effect on F” value in the assay with southern crabgrass is 2 (Herbicidal rate of 20% or more and less than 40%). Also, the “Herbicidal effect on B” value with Japanese bulrush was 3 (Herbicidal rate of 40% or more and less than 70%). In addition, the “herbicidal effect on R: persian speedwell” value in the assay on persian speedwell was 0 (Herbicidal rate of 5% or less (almost no effect)). Further, the “herbicidal effect on O” value in the assay on lambsquarters is 4 (Herbicidal rate of 70% or more and less than 90%). The “herbicidal effect on J: blackgrass” value in the assay with blackgrass was 0 (Herbicidal rate of 5% or less (almost no effect)). Moreover, in the assay with barnyard grass, the “herbicidal effect on H” value is 3 (Herbicidal rate of 40% or more and less than 70%). The “herbicidal effect rating, C” value in the assay with oval-leafed pondweed [2] was 0 (Herbicidal rate of 5% or less (almost no effect)). Moreover, the “herbicidal effect on L: windgrass” value in the assay with windgrass was 0 (Herbicidal rate of 5% or less (almost no effect)). In addition, the “Herbicidal effect on A: late watergrass (grade 0-5)” value with late watergrass is 0 (Herbicidal rate of 5% or less (almost no effect)). Further, in the assay with Chinese sprangletop, the “herbicidal effect on D” value is 3 (Herbicidal rate of 40% or more and less than 70%).
